Reference: US7432296B2, “Pharmaceutical formulations containing substituted 2-aryl-aminoacetic acid compounds and/or substituted 2-heteroaryl-aminoacetic acid compounds” (Gruenenthal GmbH, priority 2003, dated 2008)
Structures can show the parent of a compound that is named as a salt.

Columns and labels:
[1] = biological target: T1, glycine binding site of the NMDA receptor channel (Rattus norvegicus, UniProt P35439); assay: Receptor binding study (glycineB binding site of the NMDA receptor channel), displacement of (3H)-MDL 105.519; settings: 10 μM of compound, rat brain membrane homogenate (cortex and hippocampus); for inhibition at 10 µM: read-out: Inhibition % (percentage fraction of bound radioactive ligand displaced from its specific binding)
T1 construct: from tissue; host or cells: rat brain cortex and hippocampus membrane homogenate (male Wistar rats)
Description: (a) Receptor Binding Study (GlycineB Binding Site of the NMDA Receptor Channel)
The affinity of the compounds of the general formula I used according to the invention for the glycine binding site of the NMDA receptor channel is determined using brain membrane homogenates (homogenate of cortex and hippocampus area from the brain of male rats, Wistar strain), as for example described in B. M. Baron, B. W. Siegel, B. L. Harrison, R. S. Gross, C. […] The corresponding literature description is hereby introduced as a reference and is deemed to be part of the disclosure.
To this end, the cortex and hippocampus are dissected out of freshly harvested rat brains and homogenised with ice cooling in 5 mmol/l of TRIS-acetate buffer, 0.32 mol/l of sucrose, pH 7.4 (10 ml/g fresh weight) using a Potter homogeniser (Braun/Melsungen, 10 piston strokes at 500 rpm) and then centrifuged for 10 minutes at 1,000 g and 4° C. The first supernatant is collected and the sediment again homogenised with ice cooling with 5 mmol/l of tris-acetate buffer, 0.32 mol/l of sucrose, pH 7.4 (5 ml/g of original fresh weight) with the Potter homogeniser (10 piston strokes at 500 rpm) and centrifuged for 10 minutes at 1,000 g and 4° C. The resultant supernatant is combined with the supernatant from the first centrifugation and centrifuged at 17.000 g for 20 minutes at 4° C. The supernatant after this centrifugation is discarded and the membrane sediment resuspended with 5 mmol/l of TRIS-acetate buffer, pH 8.0 (20 ml/g of original fresh weight) and homogenised with 10 piston strokes at 500 rpm.
The membrane homogenate is then incubated for 1 hour at 4° C. and centrifuged for 30 minutes at 50,000 g and 4° C. The supernatant is discarded and the centrifuge tubes containing the membrane sediment are sealed with Parafilm and frozen for 24 hours at −20° C. On the following day, the membrane sediment is thawed and resuspended with ice-cold 5 mmol/l TRIS-acetate buffer, 0,1% saponin (wt./vol.), pH 7.0 (10 ml/g of original fresh weight) and homogenised with 10 piston strokes at 500 rpm and then centrifuged for 20 minutes at 50.000 g and 4° C. The resultant supernatant is discarded and the sediment resuspended in a small volume with 5 mmol/l of TRIS-acetate buffer, pH 7.0 (approx. 2 ml/g of original fresh weight) and again homogenised with 10 piston strokes at 500 rpm. After determination of the protein content, the membrane homogenate is adjusted with 5 mmol/l TRIS-acetate buffer, pH 7.0, to a protein concentration of 10 mg of protein/ml and frozen in aliquots until used for testing.
The receptor binding test is performed by thawing aliquots, diluting them 1:10 with 5 mmol/l TRIS-acetate buffer, pH 7.0, homogenising them with ice-cooling with 10 piston strokes at 500 rpm with the Potter homogeniser (10 piston strokes at 500 rpm) and centrifuging them for 60 minutes at 55,000 g at 4° C. The supernatant is decanted and the membrane sediment adjusted with ice-cold 50 mmol/l TRIS-acetate buffer, pH 7.0, to a protein concentration of 1 mg/ml and again homogenised with 10 piston strokes at 500 rpm and kept in suspension in an ice bath with stirring on a magnetic stirrer. This membrane homogenate is used in the receptor binding test in a quantity of 100 µl per 1 ml batch (0.1 mg of protein/ml in the final batch). […] The level of nonspecific binding is determined in the presence of 1 mmol/l of glycine.
In further batches, the compounds used according to the invention are added in concentration series and the displacement of the radioactive ligand from its specific binding at the glycine-binding site of the NMDA receptor channel is determined. Each of the triplicate batches is incubated for 120 minutes at 4° C. and then harvested by filtration through glass fibre filter mats (GF/B) in order to determine the radioactivity bound to the membrane homogenate.

[2] = test system: formaldehyde-induced nociception; assay: Formaldehyde test (mouse), second (late) phase; type: in vivo; settings: male NMRI mice, percentage change of the control
Description: (b) Formaldehyde Test (Mouse)
The investigations for determining the antinociceptive action of the substituted 2-arylaminoacetic acid compounds and/or substituted 2-heteroarylaminoacetic acid compounds of the above general formula I used according to the invention are carried out by the formaldehyde test on male albino mice (NMRI, 25-35 g, Iffa, Credo, Belgium).
In the formaldehyde test, a distinction is drawn between the first (early) phase (0-15 min after formaldehyde injection) and the second (late) phase (15-60 min after formaldehyde injection) (D. Dubuisson et al., Pain, vol. 4, pp. 161-174 (1977)). The early phase, being a direct response to the formaldehyde injection, is considered to be a model of acute pain, while the late phase is considered to be a model of persistent (chronic) pain (T. J. Coderre et al., Pain, vol. 52, pp. 259-285 (1993)). The corresponding literature descriptions are hereby introduced as a reference and are deemed to be part of the disclosure. […]
For the investigation period in the second (late) phase of the formaldehyde test, nociceptive behaviour is continuously recorded by observing the animals. […] On the basis of the quantification of the pain behaviour, action in the formaldehyde test is determined as a percentage change of the control. […]

Row | inhibition at 10 µM [1] [%] | SMILES | further results
1 | 25 | O=C(O)C(Nc1cc(Cl)cc(Cl)c1)c1cccc2c1Sc1ccccc1S2 (centres unmarked) [Example 11, (3,5-Dichlorophenylamino)-(thianthren-1-yl)acetic acid, sodium salt] | –
2 | 38 | O=C(O)C(Nc1cc(Cl)cc(Cl)c1)c1cccc2c1Oc1ccccc1S2 (centres unmarked) [Example 10, (3,5-Dichlorophenylamino)-(phenoxathiin-4-yl)acetic acid, sodium salt] | –

Further lines, the compound ahead of its results:

Row | SMILES | inhibition at 10 µM [1] [%] | further results
3 | O=C(O)C(Nc1cc(Cl)cc(Cl)c1)c1cccc2c1sc1ccccc12 (centres unmarked) [Example 2, (Dibenzothiophen-4-yl)-(3,5-dichlorophenylamino)acetic acid] | 33 | –
4 | CSc1ccccc1C(Nc1cc(Cl)cc(Cl)c1)C(=O)[O-].[Na+] (centres unmarked) [Example 12, (3,5-Dichlorophenylamino)-(2-methylsulfanylphenyl)acetic acid, sodium salt] | 39 | Inhibition (at dose) ([2]; at 31.6 mg/kg): 66% (at 31.6 mg/kg)
5 | CSc1ccc(C(Nc2cc(Cl)cc(Cl)c2)C(=O)O)cc1 (centres unmarked) [Example 13, (3,5-Dichlorophenylamino)-(4-methylsulfanylphenyl)acetic acid, sodium salt] | 83 | –
6 | CSc1ccc(C(Nc2cc(Cl)cc(Cl)c2)C(=O)O)cc1 (centres unmarked) [Example 6, (3,5-Dichlorophenylamino)-(4-methylsulfanylphenyl)acetic acid] | – | Inhibition % (percentage fraction of bound radioactive ligand displaced from its specific binding) [1]: 87%; Inhibition (at dose) ([2]; at 46.4 mg/kg): 31% (at 46.4 mg/kg)
